Measurements published in patent US9968606B2, “Deuterated compounds for treating cancer and related diseases and conditions, and compositions and methods thereof” (NeuForm Pharmaceuticals, Inc., priority 2015, dated 2018).
Read-outs that look alike come from different tables or passages of the source.

Tests used:
wild-type EGFR = wild-type EGFR (Homo sapiens, UniProt P00533); conditions: reportedly; cited from earlier work
[1] = Reactivity as covalent inhibitor: half-life in buffered aqueous cysteine solution; conditions: for half-life: PBS buffer with cysteine, 37° C.; for Improvement (%) of t½ in cysteine solution: deuterated compound vs. reference osimertinib
Protocol: The combo solutions were prepared by mixing individual evaluated compounds with reference osimertinib. Then, they were added to PBS buffer solution with cysteine at 37° C. The stability time course samples (in triplicate) were taken and added to prechilled quenching solution and then store at −70° C. freezer. The samples were analyzed on a Waters Acquity UPLC system coupled with a Bruker Q-tof mass spectrometer. The peak areas of respective extracted ion chromatograms were used for relative comparison.

[2] = Drug metabolism and pharmacokinetic evaluation in human liver microsome suspensions (percentage of compound remaining vs. incubation time); type: in vitro ADME; conditions: human liver microsomes, NADPH, 37° C., after 4 hour, combo incubation with Osimertinib
Protocol: In vitro drug metabolism and pharmacokinetic evaluation of D16-Osimertinib, and D19-Osimertinib against Osimertinib was conducted in Human Liver Microsome suspensions. The stability time course samples were prepared in house and extracted immediately by protein precipitation method using MeCN containing 400 ng/mL carbutomide as the internal standard (IS). The samples were analyzed on a Waters Acquity UPLC system coupled with a Bruker Q-tof mass spectrometer. The peak areas of respective extracted ion chromatograms were used for relative comparison. The sample preparation was performed according to the following procedure: […] The samples were put in 37° C. incubator for 10 minutes. […] The samples were vortexed and centrifuged at 13,000 g for approximately 5 minutes, then supernatants were taken and stored in −20° C. freezer. The sampling at a time point was triplicate. After the last samples were taken and they were placed in −20° C. at least 1 hour. All samples were put into a refrigerator at approximate 4° C. for 30 minutes. The samples were vortexed. Then approximately 100 μL of the supernatants were transferred to corresponding wells of a 96-well plate. The samples were diluted with 100 μL of 0.1% FA in water. The samples were vortexed and briefly centrifuged for LC-HRMS analysis. Sample chamber for LC-HRMS was kept at approximate 4° C. […]

HepG2 hepatoma cells = assay: Cell-based experiment on inhibition of WT-EGFR: cell proliferation of HepG2 hepatoma cells
Excerpt: (§1) A431 cells are a model human cell line which express abnormally high levels of the wide-type epidermal growth factor receptor (WT EGFR). WT EGFR inhibitors can affect cell prolification of the cells. Similarly the prolification of HepG2 hepatoma cells can be inhibited by WT EGFR inhibitors.

[3] = Monkey pharmacokinetic study on deuteration of indole N-methyl group; type: in vivo; conditions: cynomolgus monkey, blood; male cynomolgus monkeys, single oral administration, 20 mg/Kg; read-out: AUC(0-t) of the parent
Protocol: A total of two (2) cynomolgus monkeys (male) were placed on study. Washout period lasted 7 days between two phases. Each test article was administered to an individual animal via a single oral administration for all groups. The dose levels were 20 mg/Kg. All animals were given detailed clinical examinations prior to administration, and no abnormality was observed. Cage side observation was conducted on all animals twice daily throughout the duration of administration. All animals were weighed before dosing on the day of administration. Blood samples were collected predose and postdose 0.25, 0.5, 1, 2, 3, 4, 6, 8, 12, 24, 36 and 48 h from the femoral vein at appropriate time points for analysis. These samples were analyzed by LC-MS/MS.

[4] = system: A431 human squamous carcinoma cells (WT EGFR); assay: Cell-based experiment on inhibition of WT-EGFR: cell proliferation of A431 cells
Excerpt: as §1

[5] = combo solution with osimertinib, read-out: Half-life in cysteine solution, Deuterated (t½ h) (converted)

Sequence of wild-type EGFR (P00533 25-1210): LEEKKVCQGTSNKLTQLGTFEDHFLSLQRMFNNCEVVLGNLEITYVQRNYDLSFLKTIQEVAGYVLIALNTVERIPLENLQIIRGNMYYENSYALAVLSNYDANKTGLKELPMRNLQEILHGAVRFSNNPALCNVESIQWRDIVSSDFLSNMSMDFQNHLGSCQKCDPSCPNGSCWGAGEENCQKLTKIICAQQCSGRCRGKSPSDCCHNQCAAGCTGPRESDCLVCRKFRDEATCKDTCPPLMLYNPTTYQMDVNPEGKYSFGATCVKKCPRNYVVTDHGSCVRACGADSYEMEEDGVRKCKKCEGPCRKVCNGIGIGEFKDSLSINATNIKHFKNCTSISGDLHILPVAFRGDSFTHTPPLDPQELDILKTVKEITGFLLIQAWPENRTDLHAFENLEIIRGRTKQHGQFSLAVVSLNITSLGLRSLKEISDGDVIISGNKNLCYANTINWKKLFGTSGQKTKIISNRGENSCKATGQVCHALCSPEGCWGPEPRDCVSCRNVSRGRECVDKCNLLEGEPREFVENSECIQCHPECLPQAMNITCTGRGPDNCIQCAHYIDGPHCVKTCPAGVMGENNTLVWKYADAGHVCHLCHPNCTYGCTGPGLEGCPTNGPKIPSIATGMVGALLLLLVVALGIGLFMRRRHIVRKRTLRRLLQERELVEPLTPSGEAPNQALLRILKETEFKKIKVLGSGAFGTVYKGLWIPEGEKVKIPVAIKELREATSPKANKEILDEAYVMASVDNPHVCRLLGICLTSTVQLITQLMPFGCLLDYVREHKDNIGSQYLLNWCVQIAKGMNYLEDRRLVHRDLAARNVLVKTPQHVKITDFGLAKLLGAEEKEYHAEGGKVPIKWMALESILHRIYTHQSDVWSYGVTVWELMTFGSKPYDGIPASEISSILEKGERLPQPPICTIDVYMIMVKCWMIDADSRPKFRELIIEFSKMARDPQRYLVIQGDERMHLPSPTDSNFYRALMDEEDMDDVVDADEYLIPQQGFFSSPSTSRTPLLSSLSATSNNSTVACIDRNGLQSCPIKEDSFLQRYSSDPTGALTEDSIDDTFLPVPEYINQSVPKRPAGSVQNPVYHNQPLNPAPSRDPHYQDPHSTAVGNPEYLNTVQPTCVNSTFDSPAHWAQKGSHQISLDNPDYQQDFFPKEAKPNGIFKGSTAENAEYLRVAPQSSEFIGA

Row | half-life [1, 5] | difference between the concentrations of Osimertinib and the deuterated compound (percentage remaining) [2] | SMILES | Improvement (%) of t½ in cysteine solution [1] | further results
1 | 4.05 h | – | [2H]C([2H])=C([2H])C(=O)Nc1cc(Nc2nccc(-c3cn(C)c4ccccc34)n2)c(OC)cc1N(C)CCN(C)C [D3-osimertinib] | 33% | –
2 | 4.56 h | – | [2H]C([2H])=C([2H])C(=O)Nc1cc(Nc2nccc(-c3cn(C([2H])([2H])[2H])c4ccccc34)n2)c(OC)cc1N(C)CCN(C)C [D6-osimertinib] | 23% | –
3 | 2.75 h | ~28% | [2H]C([2H])=C([2H])C(=O)Nc1cc(Nc2nccc(-c3cn(C([2H])([2H])[2H])c4ccccc34)n2)c(OC)cc1N(C([2H])([2H])[2H])C([2H])([2H])C([2H])([2H])N(C([2H])([2H])[2H])C([2H])([2H])[2H] [D19-osimertinib] | 43% | –

The next lines start with the molecule.

Row | SMILES | half-life [1, 5] | difference between the concentrations of Osimertinib and the deuterated compound (percentage remaining) [2] | Improvement (%) of t½ in cysteine solution [1] | further results
4 | C=CC(=O)Nc1cc(Nc2nccc(-c3cn(C)c4ccccc34)n2)c(OC)cc1N(C)CCNC [AZ7550] | – | – | – | affinity towards wild-type EGFR (wild-type EGFR): low affinity towards wild-type EGFR
5 | [2H]C([2H])([2H])N(c1cc(OC)c(Nc2nccc(-c3cn(C([2H])([2H])[2H])c4ccccc34)n2)cc1NC(=O)C=C)C([2H])([2H])C([2H])([2H])N(C([2H])([2H])[2H])C([2H])([2H])[2H] [D16-osimertinib] | – | ~26% | – | –
6 | C=CC(=O)Nc1cc(Nc2nccc(-c3cn(C)c4ccccc34)n2)c(OC)cc1N(C)CCN(C)C [Osimertinib, N-(2-{2-dimethylaminoethyl-methylamino}-4-methoxy-5-{[4-(1-methylindol-3-yl)pyrimidin-2-yl]amino}phenyl)prop-2-enamide] | – | – | – | cell viability (HepG2 hepatoma cells): did not affect the viability of cells; half-life ([1]; reference osimertinib in combo solution with the deuterated compound, read-out: Half-life in cysteine solution, Reference (t½ h) (converted)): 5.41 h; AUC(0-t) [3]: 654 ng·h/mL; cell viability [4]: did not affect the viability of cells
